Laboratory results reported in patent US20250135021A1, “USE OF ANTIBODY-DRUG CONJUGATE, AND COMBINED DRUG AND USE THEREOF” (SHANGHAI MIRACOGEN INC., priority 2021, published 2025).

What was measured:
[1] = test system: AZD9291-resistant human lung adenocarcinoma PDX model LUN #2005-143; test: Efficacy in AZD9291-resistant human lung cancer PDX model LUN #2005-143; type: in vivo, immunodeficient mice; conditions: Day 29
Excerpt: (§1) The human-derived tumor tissue xenograft model (PDX model) is a tumor model established in immunodeficient mice using human tumor tissue, which retains the heterogeneity, molecular diversity and histological characteristics of the primary tumor to the greatest extent. It has a high predictive value for the clinical therapeutic effect of drugs and has been increasingly used in cancer research (Hidalgo-2014) in recent years. […] In all experiments, the commercially available third-generation EGFR inhibitor AZD9291 was used as a reference drug to compare tumor inhibition activities.
LUN #2005-143 is an AZD9291-resistant human lung adenocarcinoma (a type of NSCLC) PDX model. This experiment was performed in total of 4 groups, including a Vehicle group (ADC-3 vehicle), an AZD9291 administration group (5 mg/kg), and ADC-3 administration groups (1 mg/kg and 3 mg/kg). During the entire experiment, ADC-3 was administered four times in total, via tail vein injection on Day 0, Day 4, Day 8, and Day 12, and AZD9291 was administered 29 times in total, once a day by intragastric administration. […] In terms of body weight, all animals in the tested drug groups had good tolerance. […] In this experiment, tumor-bearing mice had good tolerance to the tested drugs.

[2] = test system: AZD9291-resistant human adenosquamous carcinoma of the lung PDX model LUN #2210-4a; test: Efficacy in AZD9291-resistant human lung cancer PDX model LUN #2210-4a; type: in vivo, immunodeficient mice; conditions: Day 28
Excerpt: as §1
(§2) LUN #2210-4a is an AZD9291-resistant human adenosquamous carcinoma of the lung PDX model. […] During the entire experiment, ADC-3 was administered four times in total, via tail vein injection on Day 0, Day 4, Day 8, and Day 12, and AZD9291 was administered 28 times in total, once a day by intragastric administration. […] Tumor-bearing mice had good tolerance to the tested drugs.

[3] = test system: AZD9291-resistant human adenosquamous carcinoma of the lung PDX model LUN #2210-106; test: Efficacy in AZD9291-resistant human lung cancer PDX model LUN #2210-106; type: in vivo, immunodeficient mice; conditions: Day 30
Excerpt: as §1
LUN #2210-106 is an AZD9291-resistant human adenosquamous carcinoma of the lung PDX model. This experiment was performed in total of 4 groups, including a Vehicle group (ADC-3 vehicle), an AZD9291 administration group (5 mg/kg), and ADC-3 administration groups (1 mg/kg and 3 mg/kg). During the entire experiment, ADC-3 was administered four times in total, via tail vein injection on Day 0, Day 4, Day 8, and Day 12, and AZD9291 was administered 30 times in total, once a day by intragastric administration. […] Tumor-bearing mice had good tolerance to the tested drugs.

[4] = test system: AZD9291-resistant human large cell lung carcinoma PDX model LUN #2355-128; test: Efficacy in AZD9291-resistant human lung cancer PDX model LUN #2355-128; type: in vivo, immunodeficient mice; conditions: Day 16
Experimental: as §1, with “extent.” for “extent. It has a high predictive value for the clinical therapeutic effect of drugs and has been increasingly used in cancer research (Hidalgo-2014) in recent years.”
This experiment was performed in total of 4 groups, including a Vehicle group (ADC-3 vehicle), an AZD9291 administration group (5 mg/kg), and ADC-3 administration groups (1 mg/kg and 3 mg/kg). During the entire experiment, ADC-3 was administered four times in total, via tail vein injection on Day 0, Day 4, Day 8, and Day 12, and AZD9291 was administered 27 times in total, once a day by intragastric administration. The experiment period was 27 days.

[5] = test system: AZD9291-resistant human adenosquamous carcinoma of the lung PDX model LUN #2441-118; test: Efficacy in AZD9291-resistant human lung cancer PDX model LUN #2441-118; type: in vivo, immunodeficient mice; conditions: Day 25
Excerpt: as §1
as §2, with “#2441-118” for “#2210-4a”, “administration. The experiment period was 28 days.” for “administration.”

[6] = test system: human lung cancer PDX model LUN #2210-106; test: Efficacy of MYK-3, AK103 and their combination in human lung cancer PDX model LUN #2210-106 in Hu-HSC-NPG mice; type: in vivo; conditions: Day 20
Experimental: LUN #2210-106 is an AZD9291-resistant human adenosquamous carcinoma of the lung PDX model. This experiment was performed in total of 4 groups, including a Vehicle group (ADC-3 vehicle), an ADC-3 administration group (1 mg/kg), an AK103 administration group (5 mg/kg), and an ADC-3 (1 mg/kg)+AK103 (5 mg/kg) administration group. During the entire experiment, ADC-3 was administered three times in total for the ADC-3 single-drug administration group, via tail vein injection on Day 0, Day 4, and Day 8; and AK103 was administered every three days via tail vein injection for the AK103 single-drug administration group, 8 times in total. For the ADC-3+AK103 administration group, ADC-3 was administered three times, and AK103 was administered ten times in total, and their administration modes were the same as those for the single-drug administration groups. The experiment period was 34 days. […] During the period from Day 20 to Day 34, the mean tumor volume of animals in the ADC-3 (1 mg/kg) administration group gradually resumed growth (from 184 mm^3 to 893 mm^3); the mean tumor volume of animals in the ADC-3 (1 mg/kg)+AK103 (5 mg/kg) administration group grew slowly (from 38 mm^3 to 126 mm^3), and on Day 34, complete tumor regression was still observed in 1 out of 6 animals.

[7] = 5 mg/kg intragastric once a day
[8] = AZD9291 dose 3 mg/kg in Table 4

| Compound | Relative tumor proliferation rate T/C (%) [1, 7] | Tumor growth inhibition rate TGI % [1, 7] | Tumor inhibition activity ([1]; 5 mg/kg) | Relative tumor proliferation rate T/C (%) [2, 7] | Tumor growth inhibition rate TGI % [2, 7] | Tumor growth inhibition rate TGI % [2, 8] | Tumor inhibition activity [2, 8] | Relative tumor proliferation rate T/C (%) [3, 7] | Tumor growth inhibition rate TGI % [3, 7] | Tumor inhibition activity ([3]; 5 mg/kg) | Relative tumor proliferation rate T/C (%) [4, 7] | Tumor growth inhibition rate TGI % [4, 7] | Tumor inhibition activity ([4]; 5 mg/kg) | Relative tumor proliferation rate T/C (%) [5, 7] | Tumor growth inhibition rate TGI % [5, 7] | Relative tumor proliferation rate T/C (%) [5, 8] | Tumor inhibition activity [5, 8] | Relative tumor proliferation rate T/C (%) ([6]; 5 mg/kg i.v. every three days) | Tumor growth inhibition rate TGI % ([6]; 5 mg/kg i.v. every three days) | Tumor inhibition activity ([6]; 5 mg/kg) |
| --- | --- | --- | --- | --- | --- | --- | --- | --- | --- | --- | --- | --- | --- | --- | --- | --- | --- | --- | --- | --- |
| C=CC(=O)Nc1cc(Nc2nccc(-c3cn(C)c4ccccc34)n2)c(OC)cc1N(C)CCN(C)C [AZD9291, osimertinib, reference compound] | 36.90% | 63.10% | ++ (T/C (%) >20% and ≤40%) | 68.99% | 31.01% | 31.01% | + (T/C (%) >40%) | 65.31% | 34.69% | + (T/C (%) >40%) | 33.61% | 66.39% | ++ (T/C (%) >20% and ≤40%) | 29.35% | 70.65% | 29.35% | ++ (T/C (%) >20% and ≤40%) | – | – | – |
| AK103: anti-PD-1 monoclonal antibody drug and immune checkpoint inhibitor | – | – | – | – | – | – | – | – | – | – | – | – | – | – | – | – | – | 93.61% | 6.39% | + (T/C (%) >40%) |
